The text below walks through data of ChEMBL document CHEMBL4265884, “Discovery and biological activity of computer-assisted drug designed Akt pathway inhibitors” (Bioorg Med Chem Lett, 2018).

Assay [1] has as its system NCI-H2009. Briefly: Growth inhibition of human NCI-H2009 cells assessed as reduction in cell number at 1.25 uM after 2 to 4 days by flow cytometric analysis. Format: functional, cell-based. On the technique in general: A flow cytometer gives signals particle by particle.
Assay [2] has as its system NCI-H2009. Briefly: Growth inhibition of human NCI-H2009 cells assessed as reduction in cell number after 2 days by flow cytometric analysis. Format: functional, cell-based.
The target of assay [3] is RAC-alpha serine/threonine-protein kinase (Homo sapiens) (UniProt P31749). Description: Inhibition of AKT phosphorylation at Ser473 in […] WBras1 cells at 1.25 uM after 24 hrs by Western blot analysis. The format is cell-based. For orientation: A western blot detects proteins with antibodies after separation by electrophoresis.
RAC-alpha serine/threonine-protein kinase (Homo sapiens), sequence (P31749 whole entry): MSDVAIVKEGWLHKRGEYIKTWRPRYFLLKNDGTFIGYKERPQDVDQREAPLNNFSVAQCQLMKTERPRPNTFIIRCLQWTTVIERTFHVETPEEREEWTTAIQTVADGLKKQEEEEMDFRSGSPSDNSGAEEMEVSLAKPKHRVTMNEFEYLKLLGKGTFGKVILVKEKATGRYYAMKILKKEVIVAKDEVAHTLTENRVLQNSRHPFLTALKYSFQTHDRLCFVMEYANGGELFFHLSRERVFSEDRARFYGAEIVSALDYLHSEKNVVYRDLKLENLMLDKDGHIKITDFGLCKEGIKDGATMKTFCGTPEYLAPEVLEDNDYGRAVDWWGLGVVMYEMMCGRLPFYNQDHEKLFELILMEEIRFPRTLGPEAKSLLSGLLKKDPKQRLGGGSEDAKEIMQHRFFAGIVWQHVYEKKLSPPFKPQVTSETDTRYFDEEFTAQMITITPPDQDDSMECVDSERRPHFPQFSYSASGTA
For assay [4] the target is unchanged. Description: Inhibition of AKT phosphorylation at Ser473 in human NCI-H2009 cells at 1.25 uM after 24 to 48 hrs by Western blot analysis. The format is cell-based.
For assay [5] the target is unchanged. Description: Inhibition of AKT phosphorylation at Ser473 in human NCI-H2009 cells at 2.5 uM after 1 to 4 hrs by Western blot analysis. The format is cell-based.
Assay [6] has the same target. Briefly: Inhibition of AKT phosphorylation at Ser473 in […] WBras1 cells at 1.25 uM after 4 hrs by Western blot analysis. Format: cell-based.
The subject of assay [7] is NCI-H2009. Description: Growth inhibition of human NCI-H2009 cells assessed as reduction in cell number at 2.5 uM after 2 to 4 days by flow cytometric analysis. Format: functional, cell-based.
Assay [8] has as its target RAC-alpha serine/threonine-protein kinase (Homo sapiens) (UniProt P31749). Briefly: Inhibition of AKT phosphorylation at Ser473 in human NCI-H2009 cells at 25 uM after 24 hrs by Western blot analysis. Format: cell-based.
Assay [9] has the same target. Briefly: Inhibition of AKT phosphorylation at Ser473 in […] WBras1 cells at 25 uM after 24 hrs by Western blot analysis. The format is cell-based.
Assay [10] has the same target. Description: Inhibition of AKT phosphorylation at Ser473 in […] WBras1 cells at 25 uM after 4 hrs by Western blot analysis. The format is cell-based.
For assay [11] the target is unchanged. Description: Inhibition of AKT phosphorylation at Ser473 in […] WBras1 cells at 2.5 uM after 4 hrs by Western blot analysis. Format: cell-based.
For assay [12] the target is unchanged. Briefly: Inhibition of AKT phosphorylation at Ser473 in […] WBras1 cells at 2.5 uM after 24 hrs by Western blot analysis. The format is cell-based.
Assay [13] has the same target. Briefly: Inhibition of AKT phosphorylation at Ser473 in human NCI-H2009 cells up to 10 uM after 4 hrs by Western blot analysis. Format: cell-based.
For assay [14] the target is unchanged. Description: Inhibition of AKT phosphorylation at Ser473 in human NCI-H2009 cells at 2.5 uM after 24 to 48 hrs by Western blot analysis. Format: cell-based.

pIC50: −log10 of the molar value. Calls of active or inactive are those of the source. The calls are words filed in the database; no cut-off is given here.

For the compound `CCCCCCCCCCCCSC1=NCCCN1`, the “growth inhibition (GI)” value with NCI-H2009 [1] was “Active”. For the same compound, the “growth inhibition (GI)” value in the assay with NCI-H2009 [2] was “Dose-dependent effect”. Besides, the pIC50 in the assay with NCI-H2009 [2] (NCI-H2009, 48 h) was 6.70. Also, the inhibition result in assay [3], in assay [4], in [5] and in assay [6] was “Active” throughout.
Turning to `C=CCCCCCCCCC1OCCN1CC` (stereo unspecified), in the assay with NCI-H2009 [7], the “growth inhibition (GI)” value is “inactive”. The inhibition result in assay [8] was “inactive”. The inhibition result in [9] and in assay [10] was “Active” throughout.
With `CCCCCCCCCCCCSC(=NC)NC`, the inhibition entry in [11] and in assay [12] was “Active” in each case. The “growth inhibition (GI)” value in the assay with NCI-H2009 [7] is “Active”. Also, the inhibition entry in assay [13] and in assay [14] was “inactive” each time.

What is called pIC50 is −log10 of the IC50, conventionally taken in molar units.
